Patent publication US5281605A, “Novel xanthine derivatives” (Sandoz Ltd., priority 1986, dated 1994)
Read-outs that look alike come from different tables or passages of the source.

Legend:
[1] = test system: Isolated human bronchus; assay: Bronchospasmolytic activity in vitro: isolated human bronchus (A.1.2); details: read-out: EC50, relaxation of human bronchus rings
Method: (§1) The trachea is excised from freshly sacrificed guineα-pigs and transected in the transverse plane to give rings of tissue of ca. 2 mm. Individual rings are mounted vertically on stainless steel supports, one of which is fixed at the base of an organ bath, the other being attached to a tension transducer. The rings are bathed in modified Tyrode solution at 37° C. and gassed with O2 /CO2 (95:5, v/v). Rings prepared in this manner, preloaded with 1 g, generate spontaneous tone and, after a period of equilibration, relax on addition of spasmolytic drugs. Tension can be enhanced by addition of carbachol (10^-6 M) or histamine (10^-4 M). To ascertain spasmolytic activity, test substances are dissolved in physiological saline and added in increasing quantities to the organ bath at 5 min. intervals to provide a cumulative concentration-effect curve.
1.2. Isolated human bronchus:
Rings of bronchus (ca. 2 mm depth) are dissected from samples of human lung, resected from patients with lung carcinoma but grossly free of disease. Activity is determined employing the methodology of example A.1.1.

[2] = Level of activity of R- versus S-isomers in animal models; type: in vivo; details: R-isomers of examples 22 and 24 compared with S-isomers of examples 23 and 25 respectively
[3] = test system: bombesin-induced bronchospasm; assay: Bronchodilator activity in vivo: inhibition of bombesin-induced bronchospasm (A.2.1); details: Cavia porcellus, iv; anaesthetised guinea pigs; i.v. at the height of bombesin-induced bronchospasm; read-out: ED50, reversal of bombesin-induced bronchospasm
Method: 2.1. Inhibition of bronchospasm:
Guinea pigs are anaesthetised with pentobarbital (30 mg/kg i.p.) and phenobarbital (100 mg/kg i.p.) and ventilated via a tracheal cannula (10 ml/kg, 1 Hz). Ventilation is monitored either by a pressure transducer measuring air-flow (Konzett-Rossler method), or by a Fleisch flow transducer in line with the inspiratory circuit. When making measurements of flow, coincident pressure changes in the thorax are monitored directly via an intrathoracic trochar, permitting display of differential pressure relative to the trachea. From this information resistance and compliance are calculated at each inspiration.
Intravenous injection of bombesin (ca. […]) as a bolus, induces increased airways resistance Wilich is sustained over a period of several minutes. Capacity of test-substance to reverse response when administered i.v. at the height of bombesin-induced bronchospasm serves as a measure of efficacy in reversing established bronchospasm.

[4] = test system: Isolated guineα-pig trachea; assay: Bronchospasmolytic activity in vitro: isolated guinea-pig trachea (A.1.1); details: Cavia porcellus
Method: 1.1. Isolated guineα-pig trachea:
as §1

Row | EC50 [1] [µM] | EC50 ([4]; basal tone, read-out: EC50, relaxation of tracheal rings, basal tone) [µM] | EC50 ([4]; in the presence of carbachol (10^-6 M), read-out: EC50, relaxation of tracheal rings, carbachol) [µM] | EC50 ([4]; in the presence of histamine (10^-4 M), read-out: EC50, relaxation of tracheal rings, histamine) [µM] | SMILES | level of activity in animal models [2] | ED50 [3] [mg/kg]
1 | 1.2 | – | – | – | COCCn1c(NC(CO)c2ccc(OC)c(OC)c2)nc2c1c(=O)n(C)c(=O)n2C (stereo not shown) [Example 7] | – | –
2 | – | 0.86 | 19 | 0.17 | COCCn1c(N[C@@H](CO)c2ccc(OC)c(OC)c2)nc2c1c(=O)n(C)c(=O)n2C [Example 22] | higher level of activity | 0.03 to 0.09
3 | – | – | – | – | COCCn1c(N[C@@H](COC)c2ccc(OC)c(OC)c2)nc2c1c(=O)n(C)c(=O)n2C [Example 24] | higher level of activity | –
